We go through two molecules from EP1181934A1, “INHIBITORS FOR OPTIC HYPOFUNCTION CAUSED BY OPTIC NERVE CELL INJURY INDUCED BY FACTORS OTHER THAN OPTIC CIRCULATORY DISORDER” (Senju Pharmaceutical Co., Ltd., priority 1999, dated 2000).

The structures appear in SMILES notation.

For assay [1], the system named is ischemic retinal neurocyte disorder. The note with it: calcium antagonists; experiment models such as high ocular pressure rat models and central retinal artery and vein ligation models; cited from earlier work.
Assay [2] deals with retinal ganglion cells. The assay can be described thus: cell death induction by increased intracellular calcium amount (kainic acid) in isolated retinal ganglion cells, MTT. The following applies: retinal ganglion cells of 8-day-old rats, 5 mM calcium chloride, pH 6.0, 1 h pre-incubation with compound, then 200 µM kainic acid, vs cell death induction group, P<0.01 (Fig. 2). The assay is classed as cell-based. The protocol: The retina was obtained from ten 8-day-old rats and treated with papain to give a cell suspension. Using a non-coat dish (TERUMO) and a dish (CORNING) coated with Thy-1.1 antibody (American Type Culture Collection, […]), retinal ganglion cells alone were isolated from the whole cells of the retina. The retinal ganglion cells on the dish were trypsinized and recovered. Then the recovered retinal ganglion cells were plated on a 96 well plate coated with poly-D-lysine and laminin at a concentration of 5000 cells/well/100 μl. The isolated retinal ganglion cells were divided for the normal group, cell death induction group and inventive compound administration group. As the cultures of the cell death induction group and inventive compound administration group, calcium chloride was added to Neurobasal medium (GIBCO) at a final concentration of 5 mM to adjust its pH to 6.0 and used. As the additives to the culture, 40 ng/ml BDNF (Pepro Tech), 40 ng/ml CNTF (Sigma), 5 μM Forskolin (Sigma), 1 mM glutamine (Wako), 50x B27 supplement (GIBCO) and Pen-strep (GIBCO) were added. For the inventive compound administration group, the inventive compound was added simultaneously with the plating of the cells and pre-incubated at 37°C for 1 h. After 1 h, kainic acid having a final concentration of 200 μM was added and the mixture was incubated at 37°C to induce cell death. […]

Assay [3] has as its system retinal ganglion cells. The assay can be described thus: central retinal artery and vein ligation model (ischemia/re-perfusion), retinal ganglion cell count. The assay is classed as in vivo. The following applies: male SD rats; hemostasis 55 minutes; 10 µg/kg via the tail vein twice (15 min before hemostasis and immediately after declamping); day 7 from release from ischemia; vs ischemic re-perfusion group, P<0.027 (Fig. 1, n=6). The protocol:
Effect of the inventive compound on an ophthalmic nerve cell disorder in rats was tested using a central retinal artery and vein ligation model, which is a model for examining increase in a calcium amount in an optic nerve cell.
Male SD rats (body weight 150 g) were grouped into a normal group, ischemic re-perfusion group and inventive compound administration group. The ischemic re-perfusion group and the inventive compound administration group were anesthetized with pentobarbital 50 mg/kg, and the central retinal artery and vein were ligated with an arterial aneurysm clip for hemostasis for 55 minutes. At 7 days from declamping, eyeballs were removed and fixed with 4% formaldehyde to prepare a tissue sample. After embedding in paraffin according to a conventional method, a thin slice (2 µm thick) was prepared by horizontal section vertical to a surface of the retina including the optic disc, and stained with hematoxylin-eosin. The number of retinal ganglion cells per a 0.25 mm retina vertical section at a certain distance (1-2 mm) from the optic disc was counted under an optical microscope. As regards the normal group, the number of retinal ganglion cells was counted in the same manner only with exposure of the central retinal artery and vein and without hemostasis. […]
Significance was detected by the Student's t-Test.

In the case of `Fc1ccc(C(c2ccc(F)cc2)N2CCN(C/C=C/c3ccccc3)CC2)cc1` [flunarizine], in assay [1], the “inhibition of ischemic retinal neurocyte disorder” value was “inhibited ischemic retinal neurocyte disorder”.
As for `C=CCN1CCN(CC(C)(C)COC(=O)C2=C(C)NC(C)=C(C(=O)OC)C2c2cccc([N+](=O)[O-])c2)CC1.Cl.Cl` (stereo not drawn) [inventive compound, 3-(4-allyl-1-piperazinyl)-2,2-dimethylpropyl methyl 2,6-dimethyl-4-(m-nitrophenyl)-1,4-dihydropyridine-3,5-dicarboxylate dihydrochloride], the “viability (%) relative to that of a normal group (retinal ganglion cell count)” value with retinal ganglion cells [2] was “significantly inhibited decrease in the retinal ganglion cell count”. For the same molecule, the “number of residual retinal ganglion cells in 0.25 mm of vertical retinal cross section” value in the assay with retinal ganglion cells [3] is recorded as “significantly inhibited decrease in the retinal ganglion cell count”.
